Where two headings read alike, the source gives them in different places.
Key:
[1] = biolocalization of the radionuclide in rats (tissue distribution after tail vein injection); assay type: in vivo, male Sprague Dawley rats; settings: Sm-153, rats
Experimental: Studies to determine the qualitative biodistribution of the various radionuclides were conducted by injecting the compositions into rats and obtaining the gamma ray images of the entire animal at various times up to two hours after injection.
Laboratory rats were injected with the above complex (50-100 μl) via the tail vein. After 2 hours, the animals were sacrificed by cervical dislocation and organs and tissues removed. Samples were counted with a NaI counter to determine the biolocalization of the radionuclide.

[2] = From the text: Quantitative biodistributions were obtained by injecting 50-100 microliters of the composition into the tail vein of unanesthetized male Sprague Dawley rats. The rats were then placed in cages lined with absorbent paper in order to collect all urine excreted prior to sacrifice. After a given period of time, the rats were sacrificed by cervical dislocation and the various tissues dissected. The samples were then rinsed with saline, blotted dry on absorbent paper and weighed. The radioactivity in the samples was measured with a NaI scintillation counter.
Whenever in the following examples and tables data is presented on the administered dose of radioactivity, the numbers given represent the percentage of the administered dose which localized in the indicated tissue. The ratios of radioactivity observed in bone relative to blood and muscle were calculated based on the percent dose per gram in the bone and in the blood and muscle. Whenever the ratios of radioactivity found in bone to that found in nonosseous tissue is given, the calculation was made as indicated above on a percent dose per gram basis.
A series of rats was injected with compositions containing Sm-153 EDTMP (compositions prepared as in Example 2) and sacrified in groups of five at various intervals.

[3] = test system: white blood cells and platelets; settings: for platelet and white blood cell levels: 2-3 weeks after administration
Experimental: A series of normal beagles was treated with various dose levels of a composition containing Sm-153-EDTMP. White blood cell and platelet counts were measured weekly to check for signs of bone marrow supression.

[4] = for Percent Injected Dose Remaining in Whole Blood, Average: average of 5 patients
Experimental: Sterile pyrogen-free vials were prepared to contain 210 mg of EDTMP and 140 mg NAOH by freeze-drying a solution containing appropriate amounts of EDTMP and NAOH. The vials were sealed under vacuum. To prepare one of the compositons of the invention, 6 ml of a solution containing Sm-153 (approximately 3×10^-4 M in Sm) in 0.1M HCl was injected into the sealed vial through a septum.
Five humans with metastatic bone cancer (three with lung cancer and two with prostate cancer as the primary site) were injected with a composition containing 2 mCi of Sm-153-EDTMP. Blood samples were taken intermittently to determine the fraction of the Sm-153 remaining in the blood.

[5] = 2 hours, ratio of percent dose per gram, average of 5 rats

SMILES: O=P([O-])(O)CN(CCN(CP(=O)([O-])O)CP(=O)(O)O)CP(=O)([O-])O.[153Sm+3] [Example 2]
- scintillation scans [1]: the radioactivity concentrating in the skeletal system
- clearance of radioactivity through the kidneys into the urine ([1]; 2 hours): Most of the radioactivity not found in the skeleton was cleared through the kidneys into the urine
- radioactivity concentrated in the skeletal system ([1]; 2 hours): 55-65%
- soft tissue uptake ([1]; 2 hours): very little soft tissue uptake
- % Dose in Blood ([1]; 2 hours, average of 5 rats): 0.032 % Dose
- % Dose in Liver ([1]; 2 hours, average of 5 rats): 0.25 % Dose
- % Dose in Skeleton ([1]; 2 hours, average of 5 rats): 58 % Dose
- % Dose in Urine ([1]; 2 hours, average of 5 rats): 49 % Dose
- Bone/Blood [1, 5]: 1800
- Bone/Muscle [1, 5]: 1500
- Average Percent of Injected Dose, Blood ([2]; 1 Hour): .532% of Injected Dose
- Average Percent of Injected Dose, Kidneys ([2]; 1 Hour): .466% of Injected Dose
- Average Percent of Injected Dose, Liver ([2]; 1 Hour): .322% of Injected Dose
- Average Percent of Injected Dose, Skeleton ([2]; 1 Hour): 58% of Injected Dose
- Average Percent of Injected Dose, Urine ([2]; 1 Hour): 47% of Injected Dose
- Bone/Blood ([2]; 1 Hour): 120
- Bone/Muscle ([2]; 1 Hour): 300
- Average Percent of Injected Dose, Blood ([2]; 2 Hours): .032% of Injected Dose
- Average Percent of Injected Dose, Kidneys ([2]; 2 Hours): .254% of Injected Dose
- Average Percent of Injected Dose, Liver ([2]; 2 Hours): .252% of Injected Dose
- Average Percent of Injected Dose, Skeleton ([2]; 2 Hours): 58% of Injected Dose
- Average Percent of Injected Dose, Urine ([2]; 2 Hours): 49% of Injected Dose
- Bone/Blood ([2]; 2 Hours): 1800
- Bone/Muscle ([2]; 2 Hours): 1500
- Average Percent of Injected Dose, Blood ([2]; 5 Hours): .008% of Injected Dose
- Average Percent of Injected Dose, Kidneys ([2]; 5 Hours): .364% of Injected Dose
- Average Percent of Injected Dose, Liver ([2]; 5 Hours): .370% of Injected Dose
- Average Percent of Injected Dose, Skeleton ([2]; 5 Hours): 59% of Injected Dose
- Average Percent of Injected Dose, Urine ([2]; 5 Hours): 46% of Injected Dose
- Bone/Blood ([2]; 5 Hours): 4200
- Bone/Muscle ([2]; 5 Hours): 3600
- Average Percent of Injected Dose, Blood ([2]; 15 Min.): 5.852% of Injected Dose
- Average Percent of Injected Dose, Kidneys ([2]; 15 Min.): 1.745% of Injected Dose
- Average Percent of Injected Dose, Liver ([2]; 15 Min.): .959% of Injected Dose
- Average Percent of Injected Dose, Skeleton ([2]; 15 Min.): 48% of Injected Dose
- Average Percent of Injected Dose, Urine ([2]; 15 Min.): 28% of Injected Dose
- Bone/Blood ([2]; 15 Min.): 7
- Bone/Muscle ([2]; 15 Min.): 30
- Average Percent of Injected Dose, Blood ([2]; 24 Hours): .007% of Injected Dose
- Average Percent of Injected Dose, Kidneys ([2]; 24 Hours): .250% of Injected Dose
- Average Percent of Injected Dose, Liver ([2]; 24 Hours): .349% of Injected Dose
- Average Percent of Injected Dose, Skeleton ([2]; 24 Hours): 52% of Injected Dose
- Average Percent of Injected Dose, Urine ([2]; 24 Hours): 55% of Injected Dose
- Bone/Blood ([2]; 24 Hours): 6700
- Bone/Muscle ([2]; 24 Hours): 2400
- Average Percent of Injected Dose, Blood ([2]; 30 Min.): 2.304% of Injected Dose
- Average Percent of Injected Dose, Kidneys ([2]; 30 Min.): .805% of Injected Dose
- Average Percent of Injected Dose, Liver ([2]; 30 Min.): .526% of Injected Dose
- Average Percent of Injected Dose, Skeleton ([2]; 30 Min.): 53% of Injected Dose
- Average Percent of Injected Dose, Urine ([2]; 30 Min.): 42% of Injected Dose
- Bone/Blood ([2]; 30 Min.): 20
- Bone/Muscle ([2]; 30 Min.): 70
- Average Percent of Injected Dose, Blood ([2]; 48 Hours): .006% of Injected Dose
- Average Percent of Injected Dose, Kidneys ([2]; 48 Hours): .286% of Injected Dose
- Average Percent of Injected Dose, Liver ([2]; 48 Hours): .458% of Injected Dose
- Average Percent of Injected Dose, Skeleton ([2]; 48 Hours): 60% of Injected Dose
- Average Percent of Injected Dose, Urine ([2]; 48 Hours): 50% of Injected Dose
- Bone/Blood ([2]; 48 Hours): 8200
- Bone/Muscle ([2]; 48 Hours): 2800
- Average Percent of Injected Dose, Blood ([2]; 72 Hours): .006% of Injected Dose
- Average Percent of Injected Dose, Kidneys ([2]; 72 Hours): .216% of Injected Dose
- Average Percent of Injected Dose, Liver ([2]; 72 Hours): .492% of Injected Dose
- Average Percent of Injected Dose, Skeleton ([2]; 72 Hours): 57% of Injected Dose
- Average Percent of Injected Dose, Urine ([2]; 72 Hours): 53% of Injected Dose
- Bone/Blood ([2]; 72 Hours): 7800
- Bone/Muscle ([2]; 72 Hours): 3400
- clearance of the radioactivity from the skeletal system ([2]; rats, up to 72 hours, words): no significant clearance of the radioactivity from the skeletal system
- blood clearance ([2]; rats, words): rapid blood clearance
- uptake of the radioactivity in bone ([2]; rats, words): rapid uptake of the radioactivity in bone
- platelet and white blood cell levels ([3]; 0.5 mCi Sm-153/kg): smaller decrease in the levels of platelets and white blood cells
- time to return of white cells and platelets to normal levels ([3]; 0.5 mCi Sm-153/kg, few animals that fell below normal): 4-5 weeks
- time to return of white cells and platelets to normal levels ([3]; 1.0 mCi Sm-153/kg): 4-5 weeks
- platelet and white blood cell levels ([3]; 1.0 mCi Sm-153/kg): slight decrease in both platelets and white blood cells
- Percent Injected Dose Remaining in Whole Blood, Average ([4]; 5 min.): 31.63 Percent Injected Dose
- Percent Injected Dose Remaining in Whole Blood, Average ([4]; 15 min.): 20.90 Percent Injected Dose
- Percent Injected Dose Remaining in Whole Blood, Average ([4]; 30 min.): 15.77 Percent Injected Dose
- Percent Injected Dose Remaining in Whole Blood, Average ([4]; 60 min.): 9.53 Percent Injected Dose
- Percent Injected Dose Remaining in Whole Blood, Average ([4]; 120 min.): 5.17 Percent Injected Dose
- Percent Injected Dose Remaining in Whole Blood, Average ([4]; 180 min.): 3.28 Percent Injected Dose
- Percent Injected Dose Remaining in Whole Blood, Average ([4]; 240 min.): 2.08 Percent Injected Dose
- concentration of radioactivity in red cells ([4]; humans): no significant concentration of radioactivity in red cells
- radioactivity in the plasma fraction ([4]; humans): all of the measured activity was in the plasma fraction
- clearance of radioactivity from the blood ([4]; humans, words): the radioactivity cleared very rapidly from the blood

— patent US5300279A, “Organic amine phosphonic acid complexes for the treatment of calcific tumors” (The Dow Chemical Company, priority 1990, dated 1994)
